Structures can show the parent of a compound that is named as a salt. Where two headings read alike, the source gives them in different places. Marks after values point to notes of the source that are not given here.
Legend:
murine NPCs = details: ref Demir & Laywell, 2015; P. Xu, et al., 2017; cited from earlier work
hiPSC-neurons [1] = test: HCA of synapses; assay type: cell-based, human
hiPSC-neurons [2] = test: Calcium KIC assay; assay type: cell-based, human; details: each ARV at 10 μM, 7 days; for Calcium transient activity compared to DMSO (traces): Fig. 5, Fig. S1; for Percent active hiPSC-neurons, reduction vs DMSO: Fig. 6D; for Number of active neurons with detectable increases in calcium fluorescence: six wells per condition, Fig. 5 (DMSO: 1034 cells)
hiPSC-neurons [3] = details: for Neuronal Viability (percentage of live neuronal nuclei), reduction vs DMSO / Neuronal Viability, change vs DMSO: Fig. 1B; for Total Neurite Length (per cm^2 image area), reduction vs DMSO: Fig. 1C; for Neuronal Viability, reduction vs DMSO: Fig. 2D
[4] = cited from earlier work; for Plasma concentrations reach steady state by day: daily dosage, ref Min, et al.; for Cmax: read-out: Plasma Cmax, ref Food and Drug Administration New Drug Applications for each antiretroviral
hNPCs [5] = test: hNPC viability; assay type: cell-based, human; details: Fig. 7A
hNPCs [6] = test: Microscopic Imaging of Epigenetic Landscapes; assay type: cell-based, human; details: for Samples classified correctly by discriminant analysis: H3K27me3/H3K27ac and H3K9me3/H3K4me1 confusion matrices, Fig. 7D, E
hiPSC-microglia = details: cited from earlier work
[7] = system: primary embryonic rat neurons; details: ref Stern, et al., 2018, cited from earlier work; for Number of MAP2+ neurons: 10 μM
[8] = lower concentrations (0.1, 1 μM), 7 days
[9] = 25 μM (inhibiting myosin activity)

Compound | Synapses/Neurite Length, reduction vs DMSO (hiPSC-neurons [1]; 0.1 μM, 7 days, Fig. 3C) [%] | Synapse Density, reduction vs DMSO (hiPSC-neurons [1]; 1 μM, 7 days, Fig. 3B) [%] | Synapses/Neurite Length, reduction vs DMSO (hiPSC-neurons [1]; 1 μM, 7 days, Fig. 3C) | Synapses/Neurite Length, reduction vs DMSO (hiPSC-neurons [1]; 10 μM, 7 days, Fig. 3C) | Synapse Density, percent difference between ARV treatment and DMSO control (hiPSC-neurons [1]; each ARV at 10 μM, 7 days) | Mean Peak Amplitude, percent difference between ARV treatment and DMSO control (hiPSC-neurons [2]) | Percent Active, percent difference between ARV treatment and DMSO control (hiPSC-neurons [2]) | Number of active neurons with detectable increases in calcium fluorescence (hiPSC-neurons [2]) [cells] | Neuronal Viability (percentage of live neuronal nuclei), reduction vs DMSO (hiPSC-neurons [3]; 10 μM, 7 days) [%] | Total Neurite Length (per cm^2 image area), reduction vs DMSO (hiPSC-neurons [3]; 10 μM, 7 days) [%] | Total Neurite Length, percent difference between ARV treatment and DMSO control (hiPSC-neurons [3]; each ARV at 10 μM, 7 days) | Neuronal Viability, reduction vs DMSO (hiPSC-neurons [3]; each ARV at 10 μM, 7 days) [%] | Cmax [4] [µM] | Synapse Density, reduction vs DMSO (hiPSC-neurons [1]; 10 μM, 7 days, Fig. 3B) [%] | further results
Cc1cn([C@H]2C[C@H](N=[N+]=[N-])[C@@H](CO)O2)c(=O)[nH]c1=O [zidovidine] |  |  |  |  |  |  |  |  |  |  |  |  |  |  | Viability of murine NPCs (murine NPCs): reduce the viability
C[C@@H]1CCO[C@H]2Cn3cc(C(=O)NCc4ccc(F)cc4F)c(=O)c(O)c3C(=O)N12 [DTG, dolutegravir] | 20 | 30 | 30% | no effect | −10(NS) percent | −35(NS) percent | −30 ^* percent | 716 | 30 | 20 | −14(NS) percent | 20 | 8 |  | Event Frequency, percent difference between ARV treatment and DMSO control (hiPSC-neurons [2]): −10(NS) percent; Calcium transient activity compared to DMSO (traces) (hiPSC-neurons [2]): less calcium transient activity compared to DMSO; Percent active hiPSC-neurons, reduction vs DMSO (hiPSC-neurons [2]): 30%; Neurite Length per Neuron, increase vs DMSO (hiPSC-neurons [3]; 10 μM, 7 days, Fig. 1D): 20%; Plasma concentrations reach steady state by day ([4]; healthy volunteers, 2010): ≤ 5 days; Plasma concentrations reach steady state by day ([4]; people with HIV, 2011): ≤ 7 days
C[C@@H]1CCN(C(=O)CC#N)C[C@@H]1N(C)c1ncnc2[nH]ccc12 [tofacitinib] |  |  |  |  |  |  |  |  |  |  |  |  |  |  | hNPC viability, effect (hNPCs [5]; 1 μM): not affected
O=C(CCCCCCC(=O)Nc1ccccc1)NO [SAHA] |  |  |  |  |  |  |  |  |  |  |  |  |  |  | hNPC viability, reduction vs DMSO (hNPCs [5]; 3 μM): 45%; Samples classified correctly by discriminant analysis (hNPCs [6]; 3 μM): 100%
CCCc1cc(C)[nH]c(=O)c1CNC(=O)c1cc(-c2ccnc(N3CCN(C)CC3)c2)cc2c1cnn2C(C)C [GSK343] |  |  |  |  |  |  |  |  |  |  |  |  |  |  | hNPC viability, reduction vs DMSO (hNPCs [5]; 10 μM, three days): 50%; Samples classified correctly by discriminant analysis (hNPCs [6]; 10 μM): 100%
CC(C)OC(=O)OCOP(=O)(CO[C@H](C)Cn1cnc2c(N)ncnc21)OCOC(=O)OC(C)C [TDF, tenofovir disoproxil fumarate] | 20 | 30 | 25% | 20% |  | +20(NS) percent | −10(NS) percent | 729 | 35 | 20 |  | 30 | 0.6 | 40 | hNPC viability, reduction vs DMSO (hNPCs [5]; 10 μM, three days): 30%; Effect on epigenetic landscape (H3K27me3/H3K27ac and H3K9me3/H3K4me1 MIEL analysis) (hNPCs [6]; 10 μM, three days, Fig. 7B–E): altered the epigenetic landscape; Neuronal Viability, change vs DMSO (hiPSC-neurons [3]; [8]): did not observe changes; Viability of murine NPCs (murine NPCs): reduce the viability
O=C1Nc2ccc(Cl)cc2[C@@](C#CC2CC2)(C(F)(F)F)O1 [efavirenz] |  |  |  |  |  |  |  |  |  |  |  |  |  |  | Inflammation in hiPSC-microglia (hiPSC-microglia): increased inflammation; Phagocytosis in hiPSC-microglia (hiPSC-microglia): reduced phagocytosis
Nc1nc(=O)n([C@@H]2CS[C@H](CO)O2)cc1F [FTC, emtricitabine] | 20 | 20 | 20% | 30% | −10(NS) percent | −10(NS) percent |  | 1003 |  |  | −6(NS) percent |  | 7 | 30 | Neuronal Viability, change vs DMSO (hiPSC-neurons [3]; any tested concentration (0.1, 1, 10 μM), 7 days): did not observe changes
COc1cc2c(cc1Cc1cccc(Cl)c1F)c(=O)c(C(=O)O)cn2[C@H](CO)C(C)C [EVG, elvitegravir] | 25 |  | no effect |  | −90 ^*** percent | −55 ^** percent | −90 ^*** percent | 31 | 65 | 80 | −85 ^*** percent | 80 |  | 75 | Synapse Density (synapses per cm^2 imaging area), reduction vs DMSO (hiPSC-neurons [1]; 0.1 μM, 7 days, Fig. 3B): 20%; Synapses/Neurite Length, increase vs DMSO (hiPSC-neurons [1]; 10 μM, 7 days, Fig. 3C): 20%; Synapse Density, reduction vs DMSO (hiPSC-neurons [1]; each ARV at 10 μM, 7 days, Fig. 4C): 90%; Event Frequency, percent difference between ARV treatment and DMSO control (hiPSC-neurons [2]): −40 ^** percent; Calcium transient activity compared to DMSO (traces) (hiPSC-neurons [2]): virtually inactive; Percent active hiPSC-neurons, reduction vs DMSO (hiPSC-neurons [2]): 90%; Calcium transient event frequency, reduction vs DMSO (hiPSC-neurons [2]; Fig. 6E): 40%; Calcium transient mean peak amplitude, reduction vs DMSO (hiPSC-neurons [2]; Fig. 6F): 55%; Neurite Length per Neuron, lower than DMSO (hiPSC-neurons [3]; 10 μM, 7 days, Fig. 1D): 50%; Total Neurite Length, reduction vs DMSO (hiPSC-neurons [3]; each ARV at 10 μM, 7 days, Fig. 2E): 85%; Neuronal Viability, change vs DMSO (hiPSC-neurons [3]; [8]): did not observe changes; Number of MAP2+ neurons ([7]; four days): significantly reduced the number of MAP2+ neurons; Number of MAP2+ neurons ([7]; two days): not two days; Neurotoxicity ([7]; 0.1 and 1 μM): not neurotoxic
para-nitroblebbistatin |  |  |  |  |  |  |  |  |  |  |  |  |  |  | Synapse Density, reduction vs DMSO (hiPSC-neurons [1]; 25 μM, 7 days, Fig. 3B): 30%; Synapses/Neurite Length, reduction vs DMSO (hiPSC-neurons [1]; 25 μM, 7 days, Fig. 3C): 20%; Synapse Density, increase vs DMSO (hiPSC-neurons [1]; 25 μM, one day, Fig. 4A): 20%; Neurite length, effect (hiPSC-neurons [3]; [9]): did not affect; Neuron viability, effect (hiPSC-neurons [3]; [9]): did not affect; Total Neurite Length, increase vs DMSO (hiPSC-neurons [3]; 25 μM, one day, Fig. 2B): 15%

Source: PMC9103414 (Journal of pharmacological and toxicological methods, 2022)
